Laboratory results published in US11612604B2, “Methods of treating cancer with PLK4 inhibitors” (LUDWIG INSTITUTE FOR CANCER RESEARCH LTD, priority 2017, dated 2023).

Target: T1, PLK4 (Homo sapiens, UniProt O00444)
T1 sequence (O00444 1-970): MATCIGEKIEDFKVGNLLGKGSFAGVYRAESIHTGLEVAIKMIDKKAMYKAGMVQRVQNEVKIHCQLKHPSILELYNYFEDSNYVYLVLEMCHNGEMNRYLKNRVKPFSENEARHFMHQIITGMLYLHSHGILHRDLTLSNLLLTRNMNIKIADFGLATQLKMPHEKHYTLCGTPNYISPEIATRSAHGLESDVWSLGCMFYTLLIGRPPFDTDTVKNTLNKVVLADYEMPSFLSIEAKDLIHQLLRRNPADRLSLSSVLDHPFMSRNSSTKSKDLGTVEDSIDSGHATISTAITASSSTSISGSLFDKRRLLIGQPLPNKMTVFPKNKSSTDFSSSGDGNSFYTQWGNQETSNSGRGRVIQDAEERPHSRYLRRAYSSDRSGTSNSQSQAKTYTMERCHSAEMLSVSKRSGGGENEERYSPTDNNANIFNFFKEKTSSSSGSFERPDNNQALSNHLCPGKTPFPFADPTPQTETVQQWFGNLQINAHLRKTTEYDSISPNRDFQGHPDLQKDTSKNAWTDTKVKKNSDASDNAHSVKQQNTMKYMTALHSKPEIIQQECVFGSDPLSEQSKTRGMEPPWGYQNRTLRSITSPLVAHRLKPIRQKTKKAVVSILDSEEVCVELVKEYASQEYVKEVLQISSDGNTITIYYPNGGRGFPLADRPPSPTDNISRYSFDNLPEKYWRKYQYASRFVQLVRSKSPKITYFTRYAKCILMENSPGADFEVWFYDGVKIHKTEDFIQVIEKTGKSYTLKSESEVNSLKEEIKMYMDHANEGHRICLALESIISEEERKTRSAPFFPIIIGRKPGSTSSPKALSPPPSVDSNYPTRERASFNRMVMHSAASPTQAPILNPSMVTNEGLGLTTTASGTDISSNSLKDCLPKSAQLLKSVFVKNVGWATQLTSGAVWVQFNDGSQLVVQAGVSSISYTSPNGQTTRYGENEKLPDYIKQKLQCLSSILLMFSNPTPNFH
Assay: Activity (IC50) of the Table 1 compounds as PLK4 inhibitors
Format: biochemical
Details: Table 1, IC50 class

IC50	SMILES
< 100 nM	COc1c(Nc2cc(C)[nH]n2)nc(Sc2ccc(S(=O)(=O)C(C)(C)c3c(F)c(F)c(F)c(F)c3F)cc2F)nc1N1CCOCC1
< 100 nM	CSc1nc(Nc2cc(C)[nH]n2)c(C)c(N2CCOCC2)n1
< 100 nM	COc1c(Nc2cc(C)[nH]n2)nc(Sc2ccc(S(=O)(=O)Cc3cccc([N+](=O)[O-])c3F)cc2F)nc1N1CCC(CCNC(C)=O)CC1
< 100 nM	CC(=O)Nc1ccc(Sc2nc(Nc3cc(C)[nH]n3)c(C)c(N3CCC(OCCN(C)C)CC3)n2)cc1
< 100 nM	COc1c(Nc2cc(C)[nH]n2)nc(Sc2ccc(S(=O)(=O)COCc3ccccc3)cc2)nc1N1CCN(CCN(C)C)CC1
< 100 nM	COc1c(Nc2cc(C)[nH]n2)nc(Sc2ccc(S(=O)(=O)Cc3cccs3)cc2)nc1N1CCN(CCN(C)C)CC1
< 100 nM	CCOc1c(Nc2cc(C)[nH]n2)nc(Sc2ccc(NC(=O)C3CC3)cc2)nc1N(CC)CC
< 100 nM	CCS(=O)(=O)c1ccc(Sc2nc(Nc3cc(C)[nH]n3)c(OC)c(N3CCCCC3)n2)cc1
< 100 nM	COc1c(Nc2cc[nH]n2)nc(Sc2ccc(S(=O)(=O)Cc3cccc([N+](=O)[O-])c3F)cc2F)nc1N1CCCCC1
< 100 nM	COc1c(Nc2cc(C)[nH]n2)nc(Sc2cccc(NC(C)=O)c2)nc1N1CCN(CCN(C)C)CC1
< 100 nM	COc1c(Cc2cc(C)[nH]n2)nc(Sc2ccc(S(C)(=O)=O)cc2F)nc1N1CCOC[C@@H]1C
< 100 nM	COc1c(Nc2cc(C)[nH]n2)nc(Sc2ccc(S(=O)(=O)Cc3cccc(O)c3)cc2)nc1N1CCN(CCN(C)C)CC1
< 100 nM	COc1c(Nc2cc(C)[nH]n2)nc(Sc2ccc(S(=O)(=O)C(C)(C)c3cccc([N+](=O)[O-])c3F)cc2F)nc1N1CCC(CCO)CC1
< 100 nM	CCOc1c(Nc2cc(C)[nH]n2)nc(Sc2ccc(NC(C)=O)cc2)nc1N1CCC(O)CC1
< 100 nM	COc1c(Nc2cc(C)[nH]n2)nc(Sc2ccc(NC(C)=O)cc2)nc1N1CCOC[C@H]1C
< 100 nM	COc1c(Nc2cc(C)[nH]n2)nc(Sc2ccc(S(=O)(=O)C(C)(C)c3cccc([N+](=O)[O-])c3F)cc2F)nc1N1CCC(CN(C)C)CC1
< 100 nM	COc1c(Nc2cc(C)[nH]n2)nc(Sc2ccc(NC(=O)C3CCCC3)cc2)nc1N1CCOCC1
< 100 nM	COc1c(Nc2cc(C)[nH]n2)nc(Sc2ccc(NC(=O)C(F)(F)F)cc2)nc1N1CCN(CCN(C)C)CC1
< 100 nM	COc1c(Nc2cc(C)[nH]n2)nc(Sc2ccc(S(=O)(=O)Cc3ccccc3)cc2)nc1N1CCC(CCN2C3CCCC2CC3)CC1
< 100 nM	COc1c(Nc2cc(C)[nH]n2)nc(Sc2ccc(S(=O)(=O)C3(c4cccc([N+](=O)[O-])c4F)CC3)cc2F)nc1N1CCNCC1
< 100 nM	COc1c(Nc2cc(C)[nH]n2)nc(Sc2ccc(NC(C)=O)cc2)nc1N1CCC(C(C)=O)CC1
< 100 nM	COc1c(Nc2cc(C)[nH]n2)nc(Sc2ccc(S(=O)(=O)Cc3ccccc3)cc2)nc1N1CCC(N2CCN(C)CC2)CC1
< 100 nM	COc1c(Nc2cc(C)[nH]n2)nc(Sc2ccc(NC(C)=O)cc2)nc1N1CCN(CCN2CCCCC2)CC1
< 100 nM	COc1c(Nc2cc(C)[nH]n2)nc(Sc2ccc(S(=O)(=O)C(C)(C)c3c(F)c(F)cc(F)c3F)cc2F)nc1N1CCC(CC(N)=O)CC1
< 100 nM	COc1c(Nc2cc(C)[nH]n2)nc(Sc2ccc(S(=O)(=O)C(C)(C)c3c(F)c(F)cc(F)c3F)cc2F)nc1N1CCN(C(C)=O)CC1
< 100 nM	COc1c(Nc2cc(C)[nH]n2)nc(Sc2ccc(NC(C)=O)cc2)nc1N1CCN(C2CCN(C)CC2)CC1
< 100 nM	COc1c(Nc2cc[nH]n2)nc(Sc2ccc(S(=O)(=O)Cc3cccc([N+](=O)[O-])c3F)cc2F)nc1N1CCOCC1
< 100 nM	COc1c(Nc2cc(C)[nH]n2)nc(Sc2ccc(NC(C)=O)cc2)nc1N1CCN(CCN2CCCCCC2)CC1

IC50	SMILES
< 100 nM	CSc1nc(Nc2cc(C)[nH]n2)c(Cl)c(N2CCCCC2)n1
< 100 nM	COc1c(Nc2cc(C)[nH]n2)nc(Sc2ccc(S(=O)(=O)Cc3cccc(Cl)c3)cc2)nc1N1CCN(CCN(C)C)CC1
< 100 nM	CCS(=O)(=O)c1ccc(Sc2nc(Nc3cc(C)[nH]n3)c(OC)c(N3CCOCC3)n2)cc1
< 100 nM	Cc1cc(Nc2nc(Sc3ccc(NC(=O)C4CC4)cc3)nc(C)c2C)n[nH]1
< 100 nM	COc1c(Nc2cc(C)[nH]n2)nc(Sc2ccc(S(=O)(=O)C(C)(C)c3cccc(Br)c3F)cc2F)nc1N1CCN(CCN(C)C)CC1
< 100 nM	COc1c(Nc2cc(C)[nH]n2)nc(Sc2ccc(NC(C)=O)cc2)nc1N1CCN(C(=O)C(C)C)CC1
< 100 nM	COc1c(Nc2cc(C)[nH]n2)nc(Sc2ccc(S(=O)(=O)Cc3c(F)c(F)cc(Cl)c3F)cc2F)nc1N1CCN(CCN(C)C)CC1
< 100 nM	CC(=O)Nc1ccc(Sc2nc(Nc3cc(C)[nH]n3)c(Cl)c(N3CCCCC3)n2)cc1
< 100 nM	COc1c(Nc2cc(C)[nH]n2)nc(Sc2ccc(S(=O)(=O)C(C)(C)c3cccc([N+](=O)[O-])c3F)cc2F)nc1N1CCC(CCNC(=O)C(F)(F)F)CC1
< 100 nM	COCC(=O)N1CCN(c2nc(Sc3ccc(NC(=O)C4CC4)cc3)nc(Nc3cc(C)[nH]n3)c2OC)CC1
< 100 nM	CNC(=O)CC1CCN(c2nc(Sc3ccc(S(=O)(=O)C(C)(C)c4cccc([N+](=O)[O-])c4)cc3F)nc(Nc3cc(C)[nH]n3)c2OC)CC1
< 100 nM	COc1c(Nc2cc(C)[nH]n2)nc(Sc2ccc(S(=O)(=O)Cc3ccccc3)cc2)nc1N1CCN(CCN2C(C)CCCC2C)CC1 (stereo not shown)
< 100 nM	CCS(=O)(=O)c1ccc(Sc2nc(Nc3cc(C)[nH]n3)c(OC)c(N3CCOCC3)n2)c(Cl)c1
< 100 nM	CC(=O)Nc1ccc(Sc2nc(Nc3cc(C)[nH]n3)c3c(n2)C2(CC3)CCN(CCN(C)C)CC2)cc1
< 100 nM	COc1c(Nc2cc(C)[nH]n2)nc(Sc2ccc(S(=O)(=O)C(C)(C)c3cccc([N+](=O)[O-])c3F)cc2F)nc1N1CCC(O)C1 (stereo not shown)
< 100 nM	COc1c(Nc2cc(C)[nH]n2)nc(Sc2ccc(S(=O)(=O)Cc3cccc([N+](=O)[O-])c3)cc2F)nc1N1CCN(CCN(C)C)CC1
< 100 nM	COc1c(Nc2cc(C)[nH]n2)nc(Sc2ccc(NC(C)=O)cc2)nc1N1CCC(O)CC1
< 100 nM	COc1c(Nc2cc(C)[nH]n2)nc(Sc2ccc(NC(=O)C3CCCC3)cc2)nc1N(C)C
< 100 nM	CCOc1c(Nc2cc(C)[nH]n2)nc(Sc2ccc(NC(=O)C3CC3)cc2)nc1N1CCOCC1
< 100 nM	CSc1nc(Nc2cc(C)[nH]n2)c(C)c(N2CCC(O)CC2)n1
< 100 nM	COc1c(Nc2cc(C)[nH]n2)nc(Sc2ccc(S(=O)(=O)C(F)(F)F)cc2)nc1N1CCN(CCN(C)C)CC1
< 100 nM	COc1c(Nc2cc(C)[nH]n2)nc(Sc2ccc(S(=O)(=O)C3(c4cccc([N+](=O)[O-])c4F)CC3)cc2F)nc1N1CCC(CN)CC1
< 100 nM	COc1c(CS(=O)(=O)c2ccc(Sc3nc(Nc4cc(C)[nH]n4)c(OC)c(N4CCN(CCN(C)C)CC4)n3)cc2)cccc1[N+](=O)[O-]
100 to 1000 nM	COc1c(Nc2cc(C)[nH]n2)nc(Sc2ccc(-c3cc4cccc([N+](=O)[O-])c4o3)cc2F)nc1N1CCOCC1
< 100 nM	COc1c(Nc2cc(C)[nH]n2)nc(Sc2ccc(S(=O)(=O)Cc3cccc(F)c3F)cc2F)nc1N1CCN(CCN(C)C)CC1
< 100 nM	COc1c(Nc2cc(C)[nH]n2)nc(Sc2ccc(S(C)(=O)=O)cc2)nc1N1CCN(CCN(C)C)CC1
< 100 nM	COc1c(Nc2cc(C)[nH]n2)nc(Sc2ccc(S(=O)(=O)C(C)(C)c3c(F)c(F)cc(F)c3F)cc2F)nc1N1CCC(CC(=O)N(C)C)CC1
